# System: not given
# Assay: not given
# Conditions: FIG. 2B, S. paucimobilis LigDFEG gene cluster; result in words; cited from earlier work
row,Molecule,enzyme activity of gene product
1,LigD: S. paucimobilis C alpha-dehydrogenase gene product [reference compound],Cα-dehydrogenase activity
2,"LigF: S. paucimobilis beta-etherase, positive control polypeptide (protein) MTLKLYSFGPGANSLKPLATLYEKGLEFEQVFVDPSKFEQHSDWFKKINPRGQVPALWHDGKVVTESTVICEYLEDVFPESGNSLRPADPFKRAEMRVWTKWVDEYFCWCVSTIGWAFGIKAIAQKMSDEEFEEHINKNVPIPEQQLKWRRARNGFPQEMLDEEFRKVGVSVARLEETLSKQDYLVDTGYSLADICNFAIANGLQRPGGFFGDYVNQEKTPGLCAWLDRINARPAIKEMFEKSKREDLLKRQNEKVA",β-etherase activity
3,"ligE: S. paucimobilis beta-etherase, positive control polypeptide (protein) MARNNTITLYDLQLESGCTISPYVWRTKYALKHKGFDIDIVPGGFTGILERTGGRSERVPVIVDDGEWVLDSWVIAEYLDEKYPDRPMLFEGPTQKNLMKFLDNWLWSTAVGPWFRCYILDYHDLSLPQDRDYVRWSREQWFLGGQRLEDVQAGREDRLPLVPPTLEPFRRILAETKWLGGDQPNFADYSALAVFLWTASVARTPPLTEDDPLRDWLDRGFDLFDGLGRHPGMNPLFGLKLREGDPEPFVRQTGPAGAGGQALNKGPQTTKMPPRVAEKAD",β-etherase activity
4,LigG: S. paucimobilis glutathione-eliminating glutathione S transferase gene product (protein) MSGASARSLGKGSAPPGPVPEGQIRVYSMRFCPFAQRTLMVLKAKGIRHEIININLKNKPEWFFEKNPFGLVPVLENTQGHLITESVITCEYLDEAYPEKKLFPDDPYEKACQKMTFELFSKVPSLVTSFIRAKRKEDHPGIKEELKKEFSKLEEAMANKRTAFFGGNSLSMIDYLIWPWFQRLEALELNECIDHTPKLKLWMATMQEDPVASSHFIDAKTYRDYLSLYLQDSPEACDYGL,glutathione lyase activity

# System: not listed separately
# Assay: in vitro beta-etherase biochemical assay on fluorescent substrate MUAV (4MU fluorescence), clarified E. coli cell extracts
# Conditions: 0.1 mM MUAV substrate
# Source text: The model substrate synthesis 150 for use in the biochemical screening for selective activity can be outsourced through a contract research organization (CRO). The enzyme discovery effort can initially be focused on identifying potential beta-etherase candidate genes identified through bioinformatic methods. […] The fluorescent substrate α-O-(β-methylumbelliferyl) acetovanillone (MUAV), for example, can be used in in vitro assays to identify beta-etherase function (Acme Biosciences, Mt. View, Calif.). The formation of 4 methylumbelliferone (4MU) upon hydrolysis of the aryl ether bond can be monitored by fluorescence, for example, at λex=365 nm and λem=450 nm (or 460 nm).
# The enzyme screening 155 is done to identify novel etherases 160. […] Expression of the beta-etherase genes can be done in 5 ml or 25 ml samples of the recombinant E. coli strains in LB medium using induction with IPTG. Following induction, and cell harvest, cell pellets can be be lysed using the BPER (Invitrogen) cell lysis system. […] The formation of 4 methylumbelliferone (4MU) upon hydrolysis of the aryl ether bond in MUAV can be monitored by fluorescence at λex=365 nm and λem=460 nm, and can provide quantitative measurement of beta-etherase function. Cell extracts of E. coli transformed with the S. paucimobilis ligE and ligF genes can be the assay positive controls. Test or unknown samples can include, for example, E. coli strains expressing putative beta-etherase genes from N. aromaticovorans.
# This example describes a method for gene expression in E. coli, as well as beta-etherase biochemical assays. Expression of known and putative beta-etherase genes was performed using 5 ml cultures of the recombinant E. coli strains described herein in Luria Broth medium by induction of gene expression using isopropylthiogalactoside (IPTG) to a final concentration of 0.1 mM. Following induction, and cell harvest, the cells were disrupted using either sonication or the BPER (Invitrogen) cell lysis system.
# In vitro reactions were performed in a total volume of 200 ul and contained: 25 mM TrisHCl pH 7.5; 0.5 mM dithiothreitol; 1 mM glutathione; 0.05 mM or 0.1 mM MUAV; 10 ul of clarified cell extract used to initiate the reactions. Following incubation for 2.5 hours at room temperature, a 50 ul sample of the reactions was terminated using 150 uL of 300 mM glycine/NaOH buffer pH 9. The formation of 4 methylumbelliferone (4MU) upon hydrolysis of the aryl ether bond was monitored by the increase in fluorescence at λex=360 nm and λem=450 nm using a Spectramax UV/visible/fluorescent spectrophotometer.
# The total protein concentrations of the cell lysates were determined using the BCA reagent system for protein quantification (Pierce).
row,Molecule,fold more efficient than S. paucimobilis ligE beta-etherase enzyme
1,"ligE1: N. aromaticivorans putative beta-etherase polypeptide, glutathione S-transferase-like protein, expressed in E. coli (protein) MAANNTITFYDLALSTGATISPFVWATKYALKHKGFDLDVVPGGFTGILERTGGKTERLPAIVDDGEFVLDSWGIVEYLDAKYPDRPVLIPHESVAATLKALDNWFWNAAVGPWMFCFCQDYRDLSLPQDHEYVTHSREKMLGRKLEEVQAGREERLPKISAALEPLRAALAQHQWLGGSSPNYADYRIMGGILFTASVCKTPVLANDDPLRDWIERCLDLYGGLGRHPGLFPLFGLEQREGDPDLFNRAAGQGGIYKRNTGPESTRAETQRITEGMKK",approximately 75 fold

# Same assay, conditions: MUAV substrate; result in words
row,Molecule,beta-etherase activity
1,"LigF2: N. aromaticivorans putative beta-etherase polypeptide, glutathione S-transferase-like protein (protein) MALKYYHAEPLANSLKSMVPLKEKGLAYESIYVDLHKFEQHQPWFTAINPEGQVPVLDHDGTIITHTTVINEYLEDAFPDAQPADAPLRPRDPVGAARMRYWNKFIDEHVMNYVSMHGWHRMVGVIARNIASGDFEKLLESIPLPDQRKKWATARSGFSEADLANATAKIEYALDKVEKQLGETKWLAGDTYTLADINFYSHCGAMVERMFPEMEVARRAPRLCEWRDRVAARPAVAEALKSEDRTAPGLRVWSGEVR",beta-etherase activity
2,ABD26530.1: N. aromaticivorans putative beta-etherase polypeptide (protein) MVIPLGEDNTIMLKLYSFGPAANSMKPLLTVFEKGLDVEKHRLDPAKFEHHTDWFKAINPRGQVPALVDGDKVVTESTVICEYLEDEYPTEVALRPADSFGKAQMRIWTKWVDEYFCWCVSTIGWHRYVGNMVKSLSDAEFEEKVKAIPVIEQQVKWRRAREGFPQDMLDEEMRKIAYSVRKLDDHLADHEWLVPGQYTLADICNFAIANGMQFGFAELVNKQDTPHLVRWIEQINERPAVKQMFAQVELEKLGPRE,beta-etherase activity
3,"ligE1: N. aromaticivorans putative beta-etherase polypeptide, glutathione S-transferase-like protein, expressed in E. coli (protein) MAANNTITFYDLALSTGATISPFVWATKYALKHKGFDLDVVPGGFTGILERTGGKTERLPAIVDDGEFVLDSWGIVEYLDAKYPDRPVLIPHESVAATLKALDNWFWNAAVGPWMFCFCQDYRDLSLPQDHEYVTHSREKMLGRKLEEVQAGREERLPKISAALEPLRAALAQHQWLGGSSPNYADYRIMGGILFTASVCKTPVLANDDPLRDWIERCLDLYGGLGRHPGLFPLFGLEQREGDPDLFNRAAGQGGIYKRNTGPESTRAETQRITEGMKK",beta-etherase activity
4,ABD27309.1: N. aromaticivorans putative beta-etherase polypeptide (protein) MDEVSLYHWEPNANSGKPMLALMEKGVPFSSHYIDMLQFDQHKPEYLAINPQGTIPAMTHNGQVLTESTAIMEYVNDRFDGPDLMPADAQDRWRVRWWMKFMDQWLGPSFSMIGWSVFVGPMVRQRDPAELAAAIDRIPLPERRTAWRKAINGDFSESEMAESRRRVGLGIAKLEEELGKRPYVGSNQYSLADINIFNSTYSLPISQPDLAGKDRTPNIMRWLKRVYTREAVKKTWAMGKTDLAHRYGLIMAEIEG,beta-etherase activity

# System: Saccharomyces cerevisiae
# Assay: not given
# Conditions: result in words; cited from earlier work
row,Molecule,antifungal activities against the yeast Saccharomyces cerevisiae
1,COc1ccc(C=O)cc1OC [Veratraldehyde],significant antifungal activities
2,O=C(O)C=Cc1ccccc1 [cinnamic acid],significant antifungal activities
3,O=C(O)/C=C/c1cccc(O)c1 [m-coumaric acid],significant antifungal activities
4,O=C(O)/C=C/c1ccccc1O [o-coumaric acid],significant antifungal activities
5,O=C(O)/C=C/c1ccc(O)cc1 [p-coumaric acid],significant antifungal activities
6,COc1cc(C(=O)O)ccc1O [vanillic acid],significant antifungal activities
7,COc1cc(CCC(C)=O)ccc1O [vanillylacetone],significant antifungal activities

# System: Escherichia coli
# Assay: not given
# Conditions: demonstrated; result in words; cited from earlier work
row,Molecule,antibacterial activity against Escherichia coli
1,"O=Cc1ccc(O)c(O)c1O [2,3,4-trihydroxybenzaldehyde]",antibacterial activity
2,"O=Cc1cccc(O)c1O [2,3-dihydroxybenzaldehyde]",antibacterial activity
3,"O=Cc1c(O)cc(O)cc1O [2,4,6-trihydroxybenzaldehyde]",antibacterial activity
4,"O=Cc1ccc(O)cc1O [2,4-dihydroxybenzaldehyde]",antibacterial activity
5,"O=Cc1cc(O)ccc1O [2,5-dihydroxybenzaldehyde]",antibacterial activity
6,COc1cccc(C=O)c1O [2-hydroxy-3-methoxybenzaldehyde],antibacterial activity
7,COc1ccc(O)c(C=O)c1 [2-hydroxy-5-methoxybenzaldehyde],antibacterial activity
8,O=Cc1ccccc1O [2-hydroxybenzaldehyde],antibacterial activity
9,"COc1cc(O)cc(OC)c1C=O [4-hydroxy-2,6-dimethoxybenzaldehyde]",antibacterial activity

# Same assay, conditions: known; result in words; cited from earlier work
row,Molecule,antimicrobial activity against Escherichia coli
1,O=Cc1ccc(O)cc1 [4-hydroxybenzaldehyde],antimicrobial activity
2,O=Cc1ccc(CO)o1 [5-hydroxymethylfurfural],antimicrobial activity
3,O=Cc1ccco1 [furfural],antimicrobial activity
4,COc1cc(C=O)cc(OC)c1O [syringaldehyde],antimicrobial activity
5,COc1cc(C=O)ccc1O [vanillin],antimicrobial activity
